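GI50 = concentration required for 50% inhibition of growth. TGI denotes the concentration required for complete inhibition of growth.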
Legend:
Test in all cases: growth of human tumour cells (NCI), 384-well format
NCI-H522 lung = test system: NCI-H522 lung
SN12C renal = test system: SN12C renal
T-47D breast = test system: T-47D breast
ACHN renal = test system: ACHN renal
CCRF-CEM leukemia = test system: CCRF-CEM leukemia
SNB-75 CNS = test system: SNB-75 CNS
OVCAR-3 ovarian = test system: OVCAR-3 ovarian
HL-60(TB) leukemia = test system: HL-60(TB) leukemia
SK-MEL-28 melanoma = test system: SK-MEL-28 melanoma
HOP-62 NSCLC = test system: HOP-62 NSCLC
SK-OV-3 ovarian = test system: SK-OV-3 ovarian
U251 glioblastoma = test system: U251 glioblastoma
HOP-92 NSCLC = test system: HOP-92 NSCLC
OVCAR-4 ovarian = test system: OVCAR-4 ovarian
NCI-H226 lung = test system: NCI-H226 lung
MCF7 breast = test system: MCF7 breast
OVCAR-5 ovarian = test system: OVCAR-5 ovarian
UO-31 renal = test system: UO-31 renal
SF-539 CNS = test system: SF-539 CNS
SF-295 CNS = test system: SF-295 CNS
RXF 393 renal = test system: RXF 393 renal
SNB-19 CNS = test system: SNB-19 CNS
A498 renal = test system: A498 renal
SW-620 colon = test system: SW-620 colon
NCI-H322M lung = test system: NCI-H322M lung
M14 melanoma = test system: M14 melanoma
HT29 colon = test system: HT29 colon
786-0 renal = test system: 786-0 renal
LOX IMVI melanoma = test system: LOX IMVI melanoma
TK-10 renal = test system: TK-10 renal
COLO 205 colon = test system: COLO 205 colon
MDA-MB-468 breast = test system: MDA-MB-468 breast
SK-MEL-5 melanoma = test system: SK-MEL-5 melanoma
HCC-2998 colon = test system: HCC-2998 colon
OVCAR-8 ovarian = test system: OVCAR-8 ovarian
SR leukemia = test system: SR leukemia
MDA-MB-435 melanoma = test system: MDA-MB-435 melanoma
MOLT-4 leukemia = test system: MOLT-4 leukemia
RPMI-8226 leukemia = test system: RPMI-8226 leukemia
CAKI-1 renal = test system: CAKI-1 renal
HCT-15 colon = test system: HCT-15 colon
HS 578T breast = test system: HS 578T breast
BT-549 breast = test system: BT-549 breast
NCI/ADR-RES ovarian = test system: NCI/ADR-RES ovarian
K-562 leukemia = test system: K-562 leukemia
NCI-H23 lung = test system: NCI-H23 lung
EKVX NSCLC = test system: EKVX NSCLC

## Cc1ccc(S(=O)(=O)Cc2nc(-c3ccc(C(=O)NCc4cccnc4)cc3)oc2C)cc1
NCI-H522 lung
  GI50: < 10 nM
  TGI: < 10 nM
SN12C renal
  GI50: < 10 nM
  TGI: < 10 nM
T-47D breast
  GI50: < 10 nM
  TGI: < 10 nM
ACHN renal
  GI50: 12.5 nM
  TGI: 28.7 nM
CCRF-CEM leukemia
  GI50: < 10 nM
  TGI: < 10 nM
SNB-75 CNS
  GI50: 23.9 nM
  TGI: 53.2 nM
OVCAR-3 ovarian
  GI50: < 10 nM
  TGI: < 10 nM
HL-60(TB) leukemia
  GI50: < 10 nM
  TGI: < 10 nM
SK-MEL-28 melanoma
  GI50: 17.2 nM
  TGI: 34.3 nM
HOP-62 NSCLC
  GI50: < 10 nM
  TGI: 11.9 nM
SK-OV-3 ovarian
  GI50: < 10 nM
  TGI: < 10 nM
U251 glioblastoma
  GI50: < 10 nM
  TGI: < 10 nM
HOP-92 NSCLC
  GI50: 22 nM
  TGI: 52.6 nM
OVCAR-4 ovarian
  GI50: 19.3 nM
  TGI: 39.6 nM
NCI-H226 lung
  GI50: 119 nM
  TGI: 602 nM
MCF7 breast
  GI50: 14.2 nM
  TGI: 29.1 nM
OVCAR-5 ovarian
  GI50: < 10 nM
  TGI: < 10 nM
UO-31 renal
  GI50: < 10 nM
  TGI: < 10 nM
SF-539 CNS
  GI50: < 10 nM
  TGI: < 10 nM
SF-295 CNS
  GI50: 14.1 nM
  TGI: 28 nM
RXF 393 renal
  GI50: 16.9 nM
  TGI: 33.4 nM
SNB-19 CNS
  GI50: < 10 nM
  TGI: < 10 nM
A498 renal
  GI50: 56.9 nM
  TGI: 691 nM
SW-620 colon
  GI50: < 10 nM
  TGI: < 10 nM
NCI-H322M lung
  GI50: < 10 nM
  TGI: < 10 nM
M14 melanoma
  GI50: < 10 nM
  TGI: 16.9 nM
HT29 colon
  GI50: 18.9 nM
  TGI: 37.9 nM
786-0 renal
  GI50: < 10 nM
  TGI: 16.1 nM
LOX IMVI melanoma
  GI50: 17.1 nM
  TGI: 78.7 nM
TK-10 renal
  GI50: 19.1 nM
  TGI: 35.7 nM
COLO 205 colon
  GI50: < 10 nM
  TGI: < 10 nM
MDA-MB-468 breast
  GI50: 11.8 nM
  TGI: 26.1 nM
SK-MEL-5 melanoma
  GI50: < 10 nM
  TGI: 20.8 nM
HCC-2998 colon
  GI50: < 10 nM
  TGI: < 10 nM
OVCAR-8 ovarian
  GI50: < 10 nM
  TGI: < 10 nM
SR leukemia
  GI50: 18.1 nM
  TGI: 33.3 nM
MDA-MB-435 melanoma
  GI50: 13.2 nM
  TGI: 26.1 nM
MOLT-4 leukemia
  GI50: < 10 nM
  TGI: < 10 nM
RPMI-8226 leukemia
  GI50: < 10 nM
  TGI: < 10 nM
CAKI-1 renal
  GI50: < 10 nM
  TGI: 15.5 nM
HCT-15 colon
  GI50: < 10 nM
  TGI: 16.3 nM
HS 578T breast
  GI50: < 10 nM
  TGI: < 10 nM
BT-549 breast
  GI50: 17.9 nM
  TGI: 32.7 nM
NCI/ADR-RES ovarian
  GI50: 15.2 nM
  TGI: 29.4 nM
K-562 leukemia
  GI50: < 10 nM
  TGI: < 10 nM
NCI-H23 lung
  GI50: < 10 nM
  TGI: 20.2 nM
EKVX NSCLC
  GI50: < 10 nM
  TGI: 25.1 nM
